{"source": "PubChem BioAssay (NCI)", "experiment_in_all_cases": "NCI tumour cell line growth inhibition, 48 h", "key": {"NCI-H226 lung": {"system": "NCI-H226 lung"}, "SF-295 CNS": {"system": "SF-295 CNS"}, "SK-MEL-2 melanoma": {"system": "SK-MEL-2 melanoma"}, "HT29 colon": {"system": "HT29 colon"}, "UO-31 renal": {"system": "UO-31 renal"}, "HCT-15 colon": {"system": "HCT-15 colon"}, "HCC-2998 colon": {"system": "HCC-2998 colon"}, "DMS 114 small cell lung": {"system": "DMS 114 small cell lung"}, "OVCAR-3 ovarian": {"system": "OVCAR-3 ovarian"}, "COLO 205 colon": {"system": "COLO 205 colon"}, "SK-OV-3 ovarian": {"system": "SK-OV-3 ovarian"}, "HCT-116 colon": {"system": "HCT-116 colon"}, "NCI-H23 lung": {"system": "NCI-H23 lung"}, "CCRF-CEM leukemia": {"system": "CCRF-CEM leukemia"}, "MOLT-4 leukemia": {"system": "MOLT-4 leukemia"}, "U251 CNS": {"system": "U251 CNS"}, "786-0 renal": {"system": "786-0 renal"}, "SF-268 CNS": {"system": "SF-268 CNS"}, "RPMI-8226 leukemia": {"system": "RPMI-8226 leukemia"}, "M14 melanoma": {"system": "M14 melanoma"}, "IGROV1 ovarian": {"system": "IGROV1 ovarian"}, "LXFL 529 NSCLC": {"system": "LXFL 529 NSCLC"}, "OVCAR-4 ovarian": {"system": "OVCAR-4 ovarian"}, "SF-539 CNS": {"system": "SF-539 CNS"}, "HOP-92 NSCLC": {"system": "HOP-92 NSCLC"}, "OVCAR-8 ovarian": {"system": "OVCAR-8 ovarian"}, "DLD-1 colon": {"system": "DLD-1 colon"}, "ACHN renal": {"system": "ACHN renal"}, "UACC-62 melanoma": {"system": "UACC-62 melanoma"}, "CAKI-1 renal": {"system": "CAKI-1 renal"}, "OVCAR-5 ovarian": {"system": "OVCAR-5 ovarian"}, "SW-620 colon": {"system": "SW-620 colon"}, "SR leukemia": {"system": "SR leukemia"}, "KM20L2 colon": {"system": "KM20L2 colon"}, "EKVX NSCLC": {"system": "EKVX NSCLC"}, "HL-60(TB) leukemia": {"system": "HL-60(TB) leukemia"}, "UACC-257 melanoma": {"system": "UACC-257 melanoma"}, "MALME-3M melanoma": {"system": "MALME-3M melanoma"}, "SN12C renal": {"system": "SN12C renal"}, "SNB-19 CNS": {"system": "SNB-19 CNS"}, "A498 renal": {"system": "A498 renal"}, "SK-MEL-28 melanoma": {"system": "SK-MEL-28 melanoma"}, "DMS 273 small cell lung": {"system": "DMS 273 small cell lung"}, "LOX IMVI melanoma": {"system": "LOX IMVI melanoma"}, "RXF 393 renal": {"system": "RXF 393 renal"}, "HOP-62 NSCLC": {"system": "HOP-62 NSCLC"}, "SNB-75 CNS": {"system": "SNB-75 CNS"}, "XF 498 CNS": {"system": "XF 498 CNS"}, "SNB-78 CNS": {"system": "SNB-78 CNS"}, "K-562 leukemia": {"system": "K-562 leukemia"}, "NCI-H460 lung": {"system": "NCI-H460 lung"}, "SK-MEL-5 melanoma": {"system": "SK-MEL-5 melanoma"}, "HOP-18 NSCLC": {"system": "HOP-18 NSCLC"}}, "note": "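Method: 48-hour compound exposure of cells in 96-well plates, five concentrations, linear interpolation of endpoints. At the TGI there is no net growth.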", "data": [{"smiles": "Cc1ccccc1N=Nc1c(-c2ccccc2)nn(C(=O)CC(=O)Nc2cccc(Cl)c2)c1-c1ccccc1", "values": [{"measurement": "TGI", "setting": "NCI-H226 lung", "result": "> 31.6", "unit": "µM"}, {"measurement": "TGI", "setting": "SF-295 CNS", "result": "> 31.6", "unit": "µM"}, {"measurement": "TGI", "setting": "SK-MEL-2 melanoma", "result": 26, "unit": "µM"}, {"measurement": "TGI", "setting": "HT29 colon", "result": 23.4, "unit": "µM"}, {"measurement": "TGI", "setting": "UO-31 renal", "result": "> 31.6", "unit": "µM"}, {"measurement": "TGI", "setting": "HCT-15 colon", "result": "> 31.6", "unit": "µM"}, {"measurement": "TGI", "setting": "HCC-2998 colon", "result": "> 31.6", "unit": "µM"}, {"measurement": "TGI", "setting": "DMS 114 small cell lung", "result": 22.1, "unit": "µM"}, {"measurement": "TGI", "setting": "OVCAR-3 ovarian", "result": "> 31.6", "unit": "µM"}, {"measurement": "TGI", "setting": "COLO 205 colon", "result": 20.8, "unit": "µM"}, {"measurement": "TGI", "setting": "SK-OV-3 ovarian", "result": "> 31.6", "unit": "µM"}, {"measurement": "TGI", "setting": "HCT-116 colon", "result": 17.8, "unit": "µM"}, {"measurement": "TGI", "setting": "NCI-H23 lung", "result": "> 31.6", "unit": "µM"}, {"measurement": "TGI", "setting": "CCRF-CEM leukemia", "result": 25.4, "unit": "µM"}, {"measurement": "TGI", "setting": "MOLT-4 leukemia", "result": 22.7, "unit": "µM"}, {"measurement": "TGI", "setting": "U251 CNS", "result": 19.6, "unit": "µM"}, {"measurement": "TGI", "setting": "786-0 renal", "result": "> 31.6", "unit": "µM"}, {"measurement": "TGI", "setting": "SF-268 CNS", "result": "> 31.6", "unit": "µM"}, {"measurement": "TGI", "setting": "RPMI-8226 leukemia", "result": 21.2, "unit": "µM"}, {"measurement": "TGI", "setting": "M14 melanoma", "result": "> 31.6", "unit": "µM"}, {"measurement": "TGI", "setting": "IGROV1 ovarian", "result": "> 31.6", "unit": "µM"}, {"measurement": "TGI", "setting": "LXFL 529 NSCLC", "result": "> 31.6", "unit": "µM"}, {"measurement": "TGI", "setting": "OVCAR-4 ovarian", "result": "> 31.6", "unit": "µM"}, {"measurement": "TGI", "setting": "SF-539 CNS", "result": "> 31.6", "unit": "µM"}, {"measurement": "TGI", "setting": "HOP-92 NSCLC", "result": "> 100", "unit": "µM"}, {"measurement": "TGI", "setting": "OVCAR-8 ovarian", "result": "> 31.6", "unit": "µM"}, {"measurement": "TGI", "setting": "DLD-1 colon", "result": "> 31.6", "unit": "µM"}, {"measurement": "TGI", "setting": "ACHN renal", "result": "> 31.6", "unit": "µM"}, {"measurement": "TGI", "setting": "UACC-62 melanoma", "result": "> 31.6", "unit": "µM"}, {"measurement": "TGI", "setting": "CAKI-1 renal", "result": "> 100", "unit": "µM"}, {"measurement": "TGI", "setting": "OVCAR-5 ovarian", "result": "> 31.6", "unit": "µM"}, {"measurement": "TGI", "setting": "SW-620 colon", "result": "> 39.2", "unit": "µM"}, {"measurement": "TGI", "setting": "SR leukemia", "result": 20.3, "unit": "µM"}, {"measurement": "TGI", "setting": "KM20L2 colon", "result": "> 31.6", "unit": "µM"}, {"measurement": "TGI", "setting": "EKVX NSCLC", "result": "> 31.6", "unit": "µM"}, {"measurement": "TGI", "setting": "HL-60(TB) leukemia", "result": 24.5, "unit": "µM"}, {"measurement": "TGI", "setting": "UACC-257 melanoma", "result": 2.58, "unit": "µM"}, {"measurement": "TGI", "setting": "MALME-3M melanoma", "result": "> 100", "unit": "µM"}, {"measurement": "TGI", "setting": "SN12C renal", "result": 22.9, "unit": "µM"}, {"measurement": "TGI", "setting": "SNB-19 CNS", "result": "> 100", "unit": "µM"}, {"measurement": "TGI", "setting": "A498 renal", "result": 29.9, "unit": "µM"}, {"measurement": "TGI", "setting": "SK-MEL-28 melanoma", "result": "> 31.6", "unit": "µM"}, {"measurement": "TGI", "setting": "DMS 273 small cell lung", "result": "> 31.6", "unit": "µM"}, {"measurement": "TGI", "setting": "LOX IMVI melanoma", "result": 25.3, "unit": "µM"}, {"measurement": "TGI", "setting": "RXF 393 renal", "result": 28.4, "unit": "µM"}, {"measurement": "TGI", "setting": "HOP-62 NSCLC", "result": "> 31.6", "unit": "µM"}, {"measurement": "TGI", "setting": "SNB-75 CNS", "result": "> 31.6", "unit": "µM"}, {"measurement": "TGI", "setting": "XF 498 CNS", "result": 74.6, "unit": "µM"}, {"measurement": "TGI", "setting": "SNB-78 CNS", "result": "> 31.6", "unit": "µM"}, {"measurement": "TGI", "setting": "K-562 leukemia", "result": "> 31.6", "unit": "µM"}, {"measurement": "TGI", "setting": "NCI-H460 lung", "result": "> 31.6", "unit": "µM"}, {"measurement": "TGI", "setting": "SK-MEL-5 melanoma", "result": 24.9, "unit": "µM"}, {"measurement": "TGI", "setting": "HOP-18 NSCLC", "result": "> 31.6", "unit": "µM"}]}]}
